Test results taken from PMC10994559 (PLOS Neglected Tropical Diseases, 2024).
Several values for one entry are separate records, joined by “and”; a condition that tells them apart may be missing. Equal values may be shown once. Read-outs that look alike come from different tables or passages of the source.

Assays:
L. major promastigotes = assay: L. major promastigote viability, resazurin reduction; format: cell-based, Leishmania major; conditions: Leishmania major; for EC50: dose response, triplicate
Text: (§1) The infectivity of the parasites was boosted by passaging in Balb/c mice and culturing the infected lymph nodes after six weeks. L. infantum (MHOM / BR / 76 / M4192) parasite was passaged in the same media formulation with 0.5% urine.

[1] = test system: L. infantum promastigotes; assay: L. infantum promastigote viability, resazurin reduction; format: cell-based, Leishmania infantum; conditions: Leishmania infantum, 72 h; for viability at 2.5 µM: read-out: Residual viability, L. infantum promastigote (2.5 µM); for viability at 25 µM: read-out: Residual viability, L. infantum promastigote (25 µM)
Text: as §1

[2] = test system: L. major axenic amastigotes; assay: L. major axenic amastigote viability, resazurin reduction; conditions: Leishmania major; for viability at 2.5 µM / viability at 25 µM: 72 h; for viability at 2.5 µM: read-out: Residual viability, L.major amastigote (2.5 µM); for viability at 25 µM: read-out: Residual viability, L.major amastigote (25 µM); for EC50: read-out: EC50 L. major axenic amastigote
Summary of the method: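 Axenic L. major LV561 amastigotes were grown in Grace medium with 20% FCS, pH 5.4, at 33°C and seeded at 0.5x10^5 cells/well with compounds for 72 h. Resazurin was then added for 6 h and fluorescence read at ex 550/em 590 nm; hits were retested at 2.5 μM.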

[3] = test system: intracellular L. infantum amastigotes; assay: Parasite rescue assay (intramacrophage, J774 infected with L. infantum); format: cell-based, Leishmania infantum
T. cruzi trypomastigotes = assay: T. cruzi viability, resazurin reduction; format: cell-based, Trypanosoma cruzi; conditions: 72 h; for viability at 2.5 µM / viability at 25 µM: Trypanosoma cruzi; for viability at 2.5 µM: read-out: Residual viability, T.cruzi (2.5 µM), 2.5 µM, 72 h; for viability at 25 µM: read-out: Residual viability, T.cruzi (25 µM), 25 µM, 72 h
Summary of the method: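 Y-strain trypomastigotes kept in supplemented liver infusion tryptose broth with 10% FCS, pH 7.2, at 28°C. Viability by fluorescence resazurin reduction; single-point screen at 2.5 μM, then 18-concentration dose response. Amphotericin B as control drug.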

[4] = Cytotoxicity assay J774, resazurin reduction; format: cell-based, murine; conditions: mouse, J774 macrophage cells, cytotoxicity, 72 h; for viability at 72 h, 2.5 µM: read-out: Residual viability, J774 (2.5 µM); for viability at 72 h, 25 µM: read-out: Residual viability, J774 (25 µM)
Summary of the method: (§2)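 J774 and HepG2 cells were seeded at 0.5x10^5 cell/well and exposed to serially diluted compounds for 72 h at 37°C, 5% CO2. Viability was read by fluorescence resazurin reduction (λEx 550 nm, λEm 590 nm).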

[5] = test system: Murine macrophage cells (J774); assay: Cytotoxicity assay J774, resazurin reduction; format: cell-based; conditions: cytotoxicity, 72 h
Summary of the method: as §2

[6] = Body weight and tolerability during treatment in the mouse model; format: in vivo, Balb/c mice; conditions: for Body weight during treatment course: PHT-39 13.75 mg/kg i.p. or s.c., AmB 8 mg/kg i.p., vs DMSO
Procedure: L. major metacyclic promastigotes were prepared from a five day stationary phase culture through Ficoll gradient centrifugation according to previous studies with minor changes: Briefly, a 20% and 10% Ficoll gradient were prepared in PBS and M199 media, respectively and placed in a 14 ml falcon tube. Then, 1x10^9 L. major promastigotes were loaded on top of gradient and centrifuged. Metacyclic parasites were collected between two layers. Four groups of mice (n = 6) were challenged by subcutaneous injection of 2x10^6 stationary phase metacyclic promastigotes (50 μl in PBS) into the left hind footpad. Two weeks after infectious challenge, animals were treated by i.p or intralesional (s.c) PHT-39 injection (13.75 mg/kg body weight), daily or every other day, respectively, for ten days. AmB (8 mg/kg body weight) was applied as positive control drug (i.p injection for ten days) and 5% DMSO in distilled water was applied as negative control (s.c injection for ten days) (Table 1).
Every four days after the challenge, body weight was monitored and footpad swelling changes were measured (Footpad swelling = (height + width)/2) with a metric caliper (Kroeplin, IP65, D-series, external measuring gauge).

[7] = Leishmania infantum, J774, read-out: EC50 L. infantum rescue assay, intramacrophage (J774), 18 concentrations

| SMILES | EC50 (L. major promastigotes) | viability at 2.5 µM [1] | viability at 25 µM [1] | viability at 2.5 µM [2] | viability at 25 µM [2] | EC50 [2] | EC50 [3, 7] | viability at 2.5 µM (T. cruzi trypomastigotes) | viability at 25 µM (T. cruzi trypomastigotes) | viability at 72 h, 2.5 µM [4] | viability at 72 h, 25 µM [4] | EC50 ([5]; Mus musculus, J774, 72 h) | Body weight during treatment course [6] | further results |
| --- | --- | --- | --- | --- | --- | --- | --- | --- | --- | --- | --- | --- | --- | --- |
| C[C@@H]1[C@H](O)[C@@H](C)/C=C/C=C/C=C/C=C/C=C/C=C/C=C/[C@H](O[C@@H]2O[C@H](C)[C@@H](O)[C@H](N)[C@@H]2O)C[C@@H]2O[C@](O)(C[C@@H](O)C[C@@H](O)[C@H](O)CC[C@@H](O)C[C@@H](O)CC(=O)O[C@H]1C)C[C@H](O)[C@H]2C(=O)O [AmB, amphotericin B, reference compound] | 200 nM | 2.55 ± 0.17% | 5.4 ± 0.73% | 2.71 ± 1.02% | 0.33 ± 2.12% | 300 nM | 600 nM | 8.07 ± 0.38% | 7.4% | 101 ± 11.8% | 57.73 ± 0.52% | > 10000 nM | significant differences with other groups | viability at 25 µM ([3]; Leishmania infantum, J774, read-out: Residual viability, intracellular L. infantum amastigote (25 µM)): 15.4 ± 6.9%; EC50 ([3]; read-out: EC50 L. infantum rescue assay, intramacrophage (J774), 18 concentrations): 700 nM and 660 nM; Residual viability, T.cruzi (25 µM) (T. cruzi trypomastigotes; 25 µM): 7.37±1.09%; EC50 [5]: > 16000 nM |
| CC[C@@H](C)[C@H](c1nc2ccccc2n1Cc1cn(-c2ccc(C(F)(F)F)cc2)nn1)N1C(=O)c2ccccc2C1=O [PHT-39] | 5900 ± 1800 nM | 58.8 ± 1.22% | 7.71 ± 1.03% | 62.1 ± 3.43% | 2.6% | 2600 ± 1800 nM | 1200 ± 3200 nM | 57.6 ± 1.04% | 31.5 ± 1.51% | 98.3 ± 2.92% | 68 ± 9.09% | > 16000 nM | did not affect the body weight | viability at 25 µM (L. major promastigotes; 72 h, read-out: Residual viability, L.major promastigote (25 µM)): 16.6 ± 1.6%; viability at 25 µM ([3]; Leishmania infantum, J774, rescue assay in J774, 25 µM, read-out: Residual viability, intracellular L. infantum amastigote (25 µM)): 16.3%; EC50 ([3]; read-out: EC50 L. infantum rescue assay, intramacrophage (J774), 18 concentrations, listed as PH-39): 1210 ± 3200 nM; Residual viability, intracellular L. infantum amastigote (25 µM) ([3]; rescue assay in J774, 25 µM, 25 µM): 16.34±4.67%; Compound related toxicity in mice ([6]; intraperitoneal or subcutaneous injection for 10 and 5 days): did not expose any compound related toxicity |
